# Where a name gives a salt, the structure may show the parent alone.
# What was measured:
# [1] = system: bronchi in situ; assay: animal or person; details: Canis lupus familiaris, iv, read-out: Percent inhibition
# Method: The experiment was carried out in accordance with the Konzett-R6essler's method [Konzett, H. and Roessler, R: Arch. Exp. Pathol.
# Six mongrel adult dogs were anesthetized with pentobarbital sodium (30 mg/kg). A tracheal cannula was inserted, and under artificial respiration, holes were incised in the right and left pleurae to equalize the pressure of the pleural cavity to the atmospheric pressure. The amount of air which overflowed by inspiration against a pressure of 10±1 cm H20 applied from the branch of the cannula was measured by a pneumotachograph.
# [2] = system: blood-perfused trachea in situ; assay: Blood-perfused trachea in situ (Himori and Taira): tracheal blood flow and inside pressure of the trachea; assay type: in vivo; details: intraarterial injection, dogs
# Source text: The cervix of each dog was medisected to expose the pharynx and the upper part of the trachea.
# The blood was introduced from the femoral artery by a peristaltic pump, and a part of the blood stream was by-passed to the downstream of the femoral artery through a Starling's air resistance tube provided parallel to the vascular bed of the trachea, thereby performing the perfusion under a constant pressure. The pressure of the perfusion was kept a little higher than the mean aortic blood pressure.
# On the other hand, water was placed into the cuff of a tracheal tube equipped with a cuff, and the tube was inserted into the trachea. Then, the inside pressure of the cuff was measured by a pressure transducer to determine the inside pressure of the trachea as follows. Initially, water was placed in the cuff in such a manner that the static inside pressure of the trachea was about 40 cm H20. During the experiment, the tonus (the inside pressure of the trachea) of the tracheal smooth muscles in stationary phases was maintained by continuous intraarterial injections of 3 pg each of neostigmine into the vascular bed of the trachea at 30-minute intervals.
# As an index of the selectivity of the dilating activity for trachea, the ratio of the increase of the blood flow in the trachea to the decrease of the inside pressure of the trachea was determined.
smiles,measurement,setting,value
"Cn1c(=O)c2[nH]cnc2n(C)c1=O [Theophylline, theophylline]",inhibition at 3 mg/kg,[1],56%
same,effect on blood flow in the trachea and inside pressure of the trachea,[2],increased the blood flow in the trachea and reduced the inside pressure of the trachea in a dose dependent manner
"CC(C)NCC(O)c1ccc(O)c(O)c1 (single isomer, unassigned; (-)) [isoproterenol, (-) isoproterenol hydrochloride]",effect on blood flow in the trachea and inside pressure of the trachea,[2],increased the blood flow in the trachea and reduced the inside pressure of the trachea in a dose dependent manner

# — patent publication EP0075029A1, “AGENT FOR TREATING CHRONIC OBLITERATIVE LUNG DISEASE” (priority 1981, dated 1982)
